Values quoted from earlier work, collected in US7056947B2, “Aza-peptide epoxides” (Georgia Tech Research Corp., priority 2002, dated 2006).

Legend:
[1] = target: cathepsin S (Homo sapiens, UniProt P25774); details: E-64; cited from earlier work
[2] = target: fruit bromelain (Ananas comosus, UniProt O23791); details: E-64; cited from earlier work
[3] = target: papaya proteinase IV (Carica papaya, UniProt P05994); details: E-64; cited from earlier work
[4] = target: T1, trypsin (Bos taurus, UniProt P00760); details: E-64; cited from earlier work
T1 construct: gene PRSS1

[5] = target: plasmin (Homo sapiens, UniProt P00747); details: E-64; cited from earlier work
[6] = target: cathepsin V (Homo sapiens, UniProt O60911); details: E-64; cited from earlier work
[7] = test system: elastase; details: E-64; cited from earlier work
[8] = target: cathepsin H (Homo sapiens, UniProt P09668); details: E-64; cited from earlier work
[9] = target: cathepsin L (Homo sapiens, UniProt P07711); details: E-64; cited from earlier work
[10] = target: vignain (Vigna mungo, UniProt P12412); details: E-64; cited from earlier work
[11] = target: T2, papain (Carica papaya, UniProt P00784); details: E-64; cited from earlier work
T2 sequence (P00784 134-345): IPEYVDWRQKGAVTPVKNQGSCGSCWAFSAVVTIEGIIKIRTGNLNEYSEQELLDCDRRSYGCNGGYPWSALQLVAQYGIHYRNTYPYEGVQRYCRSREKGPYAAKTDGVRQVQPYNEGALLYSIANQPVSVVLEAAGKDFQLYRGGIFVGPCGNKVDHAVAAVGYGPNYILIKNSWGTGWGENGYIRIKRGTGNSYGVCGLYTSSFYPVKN

[12] = target: cathepsin F (Homo sapiens, UniProt Q9UBX1); details: E-64, rate not given; cited from earlier work
[13] = test system: kallikrein; details: E-64; cited from earlier work
[14] = target: cruzain (Trypanosoma cruzi, UniProt P25779); details: E-64; cited from earlier work
[15] = test system: collagenase; details: E-64; cited from earlier work
[16] = target: thermolysin (Bacillus thermoproteolyticus, UniProt P00800); details: E-64; cited from earlier work
[17] = target: cathepsin K (Homo sapiens, UniProt P43235); details: E-64; cited from earlier work
[18] = target: DPPI (Homo sapiens, UniProt P53634); details: E-64; cited from earlier work
[19] = target: cathepsin X (Homo sapiens, UniProt Q9UBR2); details: E-64; cited from earlier work
[20] = test system: cathepsin O; details: E-64; cited from earlier work
[21] = target: caspase 1 (ICE) (Homo sapiens, UniProt P29466); details: E-64; cited from earlier work
[22] = target: stem bromelain (Ananas comosus, UniProt P14518); details: E-64; cited from earlier work
[23] = test system: cathepsin J; details: E-64, rate not given; cited from earlier work
[24] = target: cathepsin B (Homo sapiens, UniProt P07858); details: E-64; cited from earlier work
[25] = target: clostripain (Hathewaya histolytica, UniProt P09870); details: E-64; cited from earlier work
[26] = target: calpain II (Homo sapiens, UniProt P17655); details: E-64; cited from earlier work
[27] = test system: mold acid protease; details: E-64; cited from earlier work
[28] = test system: ficin; details: E-64; cited from earlier work
[29] = target: pepsin (Homo sapiens, UniProt P0DJD8); details: E-64; cited from earlier work
[30] = target: α-chymotrypsin (Bos taurus, UniProt P00766); details: E-64; cited from earlier work
[31] = target: bleomycin hydrolase (Homo sapiens, UniProt Q13867); details: E-64; cited from earlier work
[32] = target: streptococcal proteinase (Streptococcus pyogenes, UniProt P0C0J0); details: cited from earlier work
[33] = target: legumain (Homo sapiens, UniProt Q99538); details: E-64; cited from earlier work
[34] = test system: LDH; details: E-64; cited from earlier work

Sequence of calpain II (P17655 whole entry): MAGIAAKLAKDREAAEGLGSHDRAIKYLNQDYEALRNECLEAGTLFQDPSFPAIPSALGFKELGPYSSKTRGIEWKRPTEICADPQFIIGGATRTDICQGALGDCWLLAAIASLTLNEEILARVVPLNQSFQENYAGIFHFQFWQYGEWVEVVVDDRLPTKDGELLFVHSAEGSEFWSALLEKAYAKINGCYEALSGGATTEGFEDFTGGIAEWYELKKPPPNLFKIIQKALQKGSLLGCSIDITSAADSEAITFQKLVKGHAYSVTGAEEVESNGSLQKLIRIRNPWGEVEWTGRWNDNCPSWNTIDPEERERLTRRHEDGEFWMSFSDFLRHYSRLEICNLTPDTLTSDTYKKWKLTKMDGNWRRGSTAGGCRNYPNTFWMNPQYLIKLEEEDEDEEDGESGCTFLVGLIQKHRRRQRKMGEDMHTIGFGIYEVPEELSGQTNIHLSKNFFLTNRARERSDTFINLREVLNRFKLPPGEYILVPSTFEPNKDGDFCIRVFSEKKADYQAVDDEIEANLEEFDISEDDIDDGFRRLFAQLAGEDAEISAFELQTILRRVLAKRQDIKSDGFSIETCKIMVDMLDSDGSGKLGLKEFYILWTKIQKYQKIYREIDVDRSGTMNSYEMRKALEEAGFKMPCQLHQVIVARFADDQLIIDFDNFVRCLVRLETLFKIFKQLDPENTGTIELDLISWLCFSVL
Sequence of calpain II (P04632 whole entry partner): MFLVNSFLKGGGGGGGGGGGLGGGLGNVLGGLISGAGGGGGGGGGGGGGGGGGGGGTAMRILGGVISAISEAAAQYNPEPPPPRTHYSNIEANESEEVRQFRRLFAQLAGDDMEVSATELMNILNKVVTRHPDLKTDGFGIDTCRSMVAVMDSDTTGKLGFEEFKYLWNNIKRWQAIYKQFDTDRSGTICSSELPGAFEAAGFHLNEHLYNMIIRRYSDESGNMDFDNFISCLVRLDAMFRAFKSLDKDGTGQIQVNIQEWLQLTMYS
Sequence of streptococcal proteinase (P0C0J0 146-398 limits assumed): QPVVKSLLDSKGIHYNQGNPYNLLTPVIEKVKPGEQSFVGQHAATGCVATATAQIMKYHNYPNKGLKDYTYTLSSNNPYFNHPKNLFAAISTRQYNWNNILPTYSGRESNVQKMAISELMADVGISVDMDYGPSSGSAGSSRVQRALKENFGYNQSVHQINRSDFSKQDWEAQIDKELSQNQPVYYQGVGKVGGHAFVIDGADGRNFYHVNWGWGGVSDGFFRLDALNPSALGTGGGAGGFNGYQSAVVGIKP
Sequence of pepsin (P0DJD8 63-388): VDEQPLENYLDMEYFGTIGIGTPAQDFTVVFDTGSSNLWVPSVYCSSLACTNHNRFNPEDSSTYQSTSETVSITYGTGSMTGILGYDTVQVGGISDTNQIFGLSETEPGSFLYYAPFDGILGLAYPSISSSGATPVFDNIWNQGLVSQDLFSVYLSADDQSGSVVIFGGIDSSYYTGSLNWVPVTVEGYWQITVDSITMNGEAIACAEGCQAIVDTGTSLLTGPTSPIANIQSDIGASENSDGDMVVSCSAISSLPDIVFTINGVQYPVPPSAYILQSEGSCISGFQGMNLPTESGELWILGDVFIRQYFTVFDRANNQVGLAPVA
Sequence of plasmin (P00747 97-810, species assumed): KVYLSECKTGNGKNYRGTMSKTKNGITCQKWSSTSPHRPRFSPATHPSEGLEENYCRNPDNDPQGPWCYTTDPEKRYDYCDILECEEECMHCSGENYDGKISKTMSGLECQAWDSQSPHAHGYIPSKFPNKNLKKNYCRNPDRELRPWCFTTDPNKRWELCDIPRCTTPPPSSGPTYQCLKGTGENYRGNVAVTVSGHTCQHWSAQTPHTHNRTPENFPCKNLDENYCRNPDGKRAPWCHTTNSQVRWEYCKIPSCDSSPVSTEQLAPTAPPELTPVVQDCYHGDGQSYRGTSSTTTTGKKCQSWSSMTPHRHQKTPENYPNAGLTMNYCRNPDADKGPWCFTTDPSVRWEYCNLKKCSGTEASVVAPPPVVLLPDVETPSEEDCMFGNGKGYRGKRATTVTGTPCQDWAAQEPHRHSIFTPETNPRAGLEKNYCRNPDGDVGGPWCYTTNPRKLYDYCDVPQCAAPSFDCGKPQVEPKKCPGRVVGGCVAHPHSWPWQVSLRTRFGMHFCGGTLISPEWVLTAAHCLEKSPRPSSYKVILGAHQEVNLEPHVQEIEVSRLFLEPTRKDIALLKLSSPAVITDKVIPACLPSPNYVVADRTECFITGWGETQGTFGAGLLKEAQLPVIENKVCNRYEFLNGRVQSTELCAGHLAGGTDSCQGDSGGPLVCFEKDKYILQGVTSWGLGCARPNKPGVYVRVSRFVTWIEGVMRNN
Sequence of cruzain (P25779 123-467): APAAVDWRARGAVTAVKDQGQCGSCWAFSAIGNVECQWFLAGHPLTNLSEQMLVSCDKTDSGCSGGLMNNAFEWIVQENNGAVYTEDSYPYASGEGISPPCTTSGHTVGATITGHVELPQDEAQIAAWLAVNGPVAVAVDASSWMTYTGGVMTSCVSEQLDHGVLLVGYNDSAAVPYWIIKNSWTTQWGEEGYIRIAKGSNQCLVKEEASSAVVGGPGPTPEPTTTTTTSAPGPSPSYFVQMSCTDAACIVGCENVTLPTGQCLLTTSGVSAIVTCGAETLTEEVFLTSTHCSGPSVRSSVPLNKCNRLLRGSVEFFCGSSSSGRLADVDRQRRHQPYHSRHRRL
Sequence of cathepsin H (P09668 98-335, species assumed): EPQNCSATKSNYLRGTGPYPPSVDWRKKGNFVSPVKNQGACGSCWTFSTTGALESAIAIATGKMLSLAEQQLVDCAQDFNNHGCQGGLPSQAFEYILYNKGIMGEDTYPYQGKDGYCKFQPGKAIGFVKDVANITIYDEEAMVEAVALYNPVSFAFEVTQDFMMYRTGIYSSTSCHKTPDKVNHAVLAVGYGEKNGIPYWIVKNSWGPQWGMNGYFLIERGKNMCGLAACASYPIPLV
Sequence of thermolysin (P00800 233-548): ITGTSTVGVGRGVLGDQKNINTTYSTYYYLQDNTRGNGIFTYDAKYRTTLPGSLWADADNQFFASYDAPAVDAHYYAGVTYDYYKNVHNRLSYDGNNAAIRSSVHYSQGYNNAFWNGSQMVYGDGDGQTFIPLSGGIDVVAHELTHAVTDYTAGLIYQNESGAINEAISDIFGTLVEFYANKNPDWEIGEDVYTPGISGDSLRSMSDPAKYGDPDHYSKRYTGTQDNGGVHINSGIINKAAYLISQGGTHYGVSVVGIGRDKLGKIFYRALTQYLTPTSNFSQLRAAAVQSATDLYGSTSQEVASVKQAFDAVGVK
Sequence of cathepsin V (O60911 114-334, species assumed): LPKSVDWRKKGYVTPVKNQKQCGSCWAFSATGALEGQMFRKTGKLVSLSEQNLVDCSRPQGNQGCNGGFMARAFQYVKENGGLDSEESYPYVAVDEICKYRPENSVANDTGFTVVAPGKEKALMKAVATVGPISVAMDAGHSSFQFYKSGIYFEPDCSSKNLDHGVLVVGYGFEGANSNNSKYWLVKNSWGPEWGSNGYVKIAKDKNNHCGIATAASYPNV
Sequence of legumain (Q99538 18-323, species assumed): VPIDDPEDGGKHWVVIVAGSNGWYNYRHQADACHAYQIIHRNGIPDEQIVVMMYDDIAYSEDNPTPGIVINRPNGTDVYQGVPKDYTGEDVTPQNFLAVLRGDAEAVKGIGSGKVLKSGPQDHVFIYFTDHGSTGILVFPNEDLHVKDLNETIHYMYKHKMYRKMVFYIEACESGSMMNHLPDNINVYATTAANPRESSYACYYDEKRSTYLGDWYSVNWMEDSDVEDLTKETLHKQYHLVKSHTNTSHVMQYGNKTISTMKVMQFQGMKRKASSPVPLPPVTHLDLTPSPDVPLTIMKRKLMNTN
Sequence of clostripain (P09870 51-526): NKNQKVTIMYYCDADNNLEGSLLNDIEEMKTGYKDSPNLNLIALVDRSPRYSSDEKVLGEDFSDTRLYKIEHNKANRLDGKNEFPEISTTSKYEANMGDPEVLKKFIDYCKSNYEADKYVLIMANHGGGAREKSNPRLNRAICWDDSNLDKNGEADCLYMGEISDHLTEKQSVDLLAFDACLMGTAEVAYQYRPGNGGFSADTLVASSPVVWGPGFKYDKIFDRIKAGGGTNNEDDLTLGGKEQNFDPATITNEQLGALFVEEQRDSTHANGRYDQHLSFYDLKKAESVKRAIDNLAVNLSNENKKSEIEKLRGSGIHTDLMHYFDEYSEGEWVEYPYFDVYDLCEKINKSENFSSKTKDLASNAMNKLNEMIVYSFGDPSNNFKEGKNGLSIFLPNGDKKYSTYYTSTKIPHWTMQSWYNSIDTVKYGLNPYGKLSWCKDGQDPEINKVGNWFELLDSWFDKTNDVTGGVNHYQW
Sequence of fruit bromelain (O23791 122-351): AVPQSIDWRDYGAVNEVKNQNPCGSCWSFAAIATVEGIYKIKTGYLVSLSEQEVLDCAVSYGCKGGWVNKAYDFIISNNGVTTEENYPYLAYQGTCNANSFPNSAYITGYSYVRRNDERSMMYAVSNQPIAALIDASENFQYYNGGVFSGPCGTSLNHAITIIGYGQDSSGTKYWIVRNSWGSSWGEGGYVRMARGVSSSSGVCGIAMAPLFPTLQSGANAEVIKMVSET
Sequence of cathepsin F (Q9UBX1 271-484, species assumed): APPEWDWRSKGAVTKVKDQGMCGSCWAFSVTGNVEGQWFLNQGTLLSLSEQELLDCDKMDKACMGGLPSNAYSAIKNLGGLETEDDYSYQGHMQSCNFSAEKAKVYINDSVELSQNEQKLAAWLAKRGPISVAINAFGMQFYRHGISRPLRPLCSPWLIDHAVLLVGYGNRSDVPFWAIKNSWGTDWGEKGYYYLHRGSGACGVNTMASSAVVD
Sequence of cathepsin S (P25774 115-331, species assumed): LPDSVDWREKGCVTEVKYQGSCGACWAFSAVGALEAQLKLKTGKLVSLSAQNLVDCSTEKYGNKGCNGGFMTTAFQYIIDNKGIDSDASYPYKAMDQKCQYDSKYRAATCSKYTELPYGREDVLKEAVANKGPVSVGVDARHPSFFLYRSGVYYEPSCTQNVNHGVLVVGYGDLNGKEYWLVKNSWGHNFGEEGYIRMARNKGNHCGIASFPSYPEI

CC(C)C[C@H](NC(=O)[C@H]1O[C@@H]1C(=O)O)C(=O)NCCCCNC(=N)N [E-64, N-(N-(L-3-trans-carboxyoxiran-2-carbonyl)-L-leucyl)agmatine]
rate, cathepsin S [1]: 99,000 M^−1 s^−1
ID50, fruit bromelain [2]: 0.110 (ID50)
rate, papaya proteinase IV [3]: 58,000 M^−1 s^−1
enzymes not inactivated: trypsin [4]: trypsin
enzymes not inactivated: plasmin [5]: plasmin
IC50 [6]: > 0.1 µM
enzymes not inactivated: elastase [7]: elastase
rate, cathepsin H [8]: 4,000 M^−1 s^−1
rate, cathepsin L [9]: 96,250 M^−1 s^−1
rate, vignain [10]: 32,500 M^−1 s^−1
ID50, papain [11]: 0.104 (ID50)
enzymes inactivated: cathepsin F [12]: cathepsin F
enzymes not inactivated: kallikrein [13]: kallikrein
rate, cruzain [14]: 70,600 M^−1 s^−1
enzymes not inactivated: collagenase [15]: collagenase
enzymes not inactivated: thermolysin [16]: thermolysin
Ki [17]: 0.0018 µM
rate, DPPI [18]: 100 M⁻¹ s⁻¹
rate, cathepsin X [19]: 775 M⁻¹ s⁻¹
IC50 [20]: > 100 µM
enzymes not inactivated: caspase 1 (ICE) [21]: caspase 1 (ICE)
ID50, stem bromelain [22]: 0.025 (ID50)
enzymes inactivated: cathepsin J [23]: cathepsin J
rate, cathepsin B [24]: 89,400 M^−1 s^−1
enzymes not inactivated: clostripain [25]: clostripain
rate, calpain II [26]: 7,500 M^−1 s^−1
enzymes not inactivated: mold acid protease [27]: mold acid protease
ID50, ficin [28]: 0.084 (ID50)
enzymes not inactivated: pepsin [29]: pepsin
enzymes not inactivated: α-chymotrypsin [30]: α-chymotrypsin
IC50 [31]: > 160 µM
rate, streptococcal proteinase [32]: 624 M⁻¹ s⁻¹
enzymes not inactivated: legumain [33]: legumain
enzymes not inactivated: LDH [34]: LDH
